# Columns and labels:
# [1] = system: green peach aphid (Myzus persicae); experiment: Myzus persicae test (cabbage leaf dip); format: in vivo; conditions: single active compound, 0.16 ppm
# Protocol: (§1) Solvent: 7 parts by weight of dimethylformamide Emulgator: 2 parts by weight of alkylaryl polyglycol ether
# (§2) To produce a suitable preparation of active compound, 1 part by weight of active compound is mixed with the stated amounts of solvent and emulsifier, and the concentrate is diluted with water to the desired concentration.
# Cabbage leaves (Brassica oleracea) which are heavily infested by the green peach aphid (Myzus persicae) are treated by being dipped into the preparation of active compound of the desired concentration.
# After the desired period of time, the kill in % is determined. 100% means that all aphids have been killed; 0% means that none of the aphids have been killed. The kill rates determined are entered into the Colby formula (see sheet 1).
# [2] = system: larvae of the mustard beetle (Phaedon cochleariae); experiment: Phaedon cochleariae larvae test (cabbage leaf dip); format: in vivo; conditions: single active compound
# Protocol: Phaedon cochleariae Larvae Test
# as §1, §2
# Cabbage leaves (Brassica oleracea) are treated by being dipped into the preparation of active compound of the desired concentration and populated with larvae of the mustard beetle (Phaedon cochleariae) while the leaves are still moist.
# After the desired period of time, the kill in % is determined. 100% means that all beetle larvae have been killed; 0% means that none of the beetle larvae have been killed. The kill rates determined are entered into the Colby formula (see sheet 1).
SMILES,Kill in % after 6d [1],Kill in % after 4d ([2]; 4 ppm),Kill in % after 4d ([2]; 20 ppm)
CN(Cc1ccc(Cl)nc1)C1=CC(=O)OC1 [compound (Ia)],10%,5%,16%
"O=[N+]([O-])/N=C1\NCCN1Cc1ccc(Cl)nc1 [imidacloprid, reference compound]",20%,,53%

# From patent US20100298136A1, “ACTIVE INGREDIENT COMBINATIONS WITH INSECTICIDAL PROPERTIES” (BAYER CROPSCIENCE AG, priority 2006, published 2010)
